Among the data in US8975265B2, “Substituted imidazo[1,2-a]pyrimidines and —pyridines” (Bayer Intellectual Property GmbH, priority 2010, dated 2015) are IC50 values, retold here.

pIC50: −log10 of the molar value.

Assay [1] concerns the target His-tagged human recombinant kinase full-length Akt1 (Homo sapiens (Human), UniProt P31749). Put plainly: Akt1 kinase assay (TR-FRET). The settings on record: 10 μM ATP; read-out: Akt1, median IC50. The class given is biochemical. The method in brief:
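Full-length His-tagged Akt1 (about 0.05 ng/μl final) preincubated 15 min at 22 °C with compound in 50 mM TRIS/HCl pH 7.5, 5 mM MgCl2, 1 mM DTT, 0.02% Triton X-100; biotinylated peptide substrate. Phosphopeptide detected by TR-FRET (Eu-chelate antibody to streptavidin-XL665) after 1 h at 22 °C.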

The test system of assay [2] is p-AKT1/2/3-S473 in KPL4 breast tumour cell line. Kind of assay: Cellular p-AKT1/2/3-S473 assay. The settings on record: KPL4 breast tumour cell line, 2 hours treatment; read-out: pAKT-S743 median IC50. In kind it is cell-based. The method in brief:
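KPL4 cells (PIK3CA H1047R, HER2 0/E, hormone independent) were seeded at 60–80% confluency, cultured overnight, then exposed to compound for 2 h at 37 °C. pAKT-S473 and total AKT measured together by MSD Akt Duplex on 20 µg extract; pAKT expressed as % of total AKT, at least duplicate with independent repeats.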

Assay [3] has as its system KPL-4 breast cancer cell line. Kind of assay: Tumor cell proliferation assay (CellTiter-Glo, 72 h), KPL-4. The class given is cell-based. The settings on record: KPL4, 72h drug exposure. The procedure, abridged:
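KPL-4 cells were treated with compound for 72 h at 37°C. Viability was measured as ATP by CellTiter-Glo luminescence, with a separate t=0 plate read after overnight attachment. A reference compound was run as standard.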

In a further assay the test system is A2058 (melanoma). Put plainly: Tumor cell proliferation assay, A2058. In kind it is cell-based. The settings on record: Homo sapiens, 72h drug exposure, read-out: median IC50. The protocol:
(§1) Biological Assay 4.0: Tumor Cell Proliferation Assays
(§2) Compounds were tested in a cell-based assay that measures the capacity of the compounds to inhibit tumour cell proliferation following a 72h drug exposure. Cell viability is determined using CellTiter-Glow® (CTG, Promega, cat# G7571/2/3). The CellTiter-Glo® Luminescent Cell Viability Assay is a homogeneous method to determine the number of viable cells in culture. Detection is based on using the luciferase reaction to measure the amount of ATP from viable cells. The amount of ATP in cells correlates with cell viability. Within minutes after a loss of membrane integrity, cells lose the ability to synthesize ATP, and endogenous ATPases destroy any remaining ATP; thus the levels of ATP fall precipitously.
(§3) Cells were plated at 3000-5000 cells/well (depending on the cell lines) in 90 μL growth medium on MTPs (Corning; #3603, black plate, clear flat bottom). For each cell line assayed, cells were plated onto a separate plate for determination of […] at t=0 hour and t=72 hour time points. Following overnight incubation at 37° C., chemiluminescence values for the t=0 samples were determined after adding 10 μl medium and 100 μl CTG solution according to manufacture protocol. […] Chemiluminescence values for the t=72 hour samples were determined. […]

Another assay deals with A375 (melanoma). Put plainly: Tumor cell proliferation assay, A375. In kind it is cell-based. Conditions: Homo sapiens, A-375, 72h drug exposure, read-out: median IC50. Here is the method:
as §1, §2, §3

The next assay deals with H1993 (NSCLC). Kind of assay: Tumor cell proliferation assay, H1993. In kind it is cell-based. Conditions: Homo sapiens, NCI-H1993, 72h drug exposure, read-out: median IC50. The protocol:
as §1, §2, §3

For the next assay, the system named is HMCB (melanoma). Put plainly: Tumor cell proliferation assay, HMCB. The class given is cell-based. The settings on record: Homo sapiens, 72h drug exposure, read-out: median IC50. Here is the method:
as §1, §2, §3

For a further assay, the system named is HT-144 (melanoma). Kind of assay: Tumor cell proliferation assay, HT-144. In kind it is cell-based. The settings on record: Homo sapiens, 72h drug exposure, read-out: median IC50. Here is the method: as §1, §2, §3
The next assay deals with Malme-3M (melanoma). Put plainly: Tumor cell proliferation assay, Malme-3M. The settings on record: Homo sapiens, 72h drug exposure, read-out: median IC50. The class given is cell-based. The protocol: as §1, §2, §3
The subject of a further assay is MeWo (melanoma). Put plainly: Tumor cell proliferation assay, MeWo. In kind it is cell-based. Conditions: Homo sapiens, 72h drug exposure, read-out: median IC50. Here is the method: as §1, §2, §3
The subject of another assay is SK-Mel-28 (melanoma). Kind of assay: Tumor cell proliferation assay, SK-Mel-28. Conditions: Homo sapiens, 72h drug exposure, read-out: median IC50. In kind it is cell-based. Here is the method: as §1, §2, §3
A further assay concerns U87 (brain). Put plainly: Tumor cell proliferation assay, U87. The class given is cell-based. Conditions: 72h drug exposure, read-out: median IC50. The protocol:
as §1, §2, §3

The next assay relates to UACC-257 (melanoma). Kind of assay: Tumor cell proliferation assay, UACC-257. In kind it is cell-based. The settings on record: Homo sapiens, 72h drug exposure, read-out: median IC50. Here is the method: as §1, §2, §3
In another assay the test system is UACC-62 (melanoma). Kind of assay: Tumor cell proliferation assay, UACC-62. In kind it is cell-based. The settings on record: Homo sapiens, 72h drug exposure, read-out: median IC50. Here is the method:
as §1, §2, §3

Sequence of His-tagged human recombinant kinase full-length Akt1 (P31749 whole entry): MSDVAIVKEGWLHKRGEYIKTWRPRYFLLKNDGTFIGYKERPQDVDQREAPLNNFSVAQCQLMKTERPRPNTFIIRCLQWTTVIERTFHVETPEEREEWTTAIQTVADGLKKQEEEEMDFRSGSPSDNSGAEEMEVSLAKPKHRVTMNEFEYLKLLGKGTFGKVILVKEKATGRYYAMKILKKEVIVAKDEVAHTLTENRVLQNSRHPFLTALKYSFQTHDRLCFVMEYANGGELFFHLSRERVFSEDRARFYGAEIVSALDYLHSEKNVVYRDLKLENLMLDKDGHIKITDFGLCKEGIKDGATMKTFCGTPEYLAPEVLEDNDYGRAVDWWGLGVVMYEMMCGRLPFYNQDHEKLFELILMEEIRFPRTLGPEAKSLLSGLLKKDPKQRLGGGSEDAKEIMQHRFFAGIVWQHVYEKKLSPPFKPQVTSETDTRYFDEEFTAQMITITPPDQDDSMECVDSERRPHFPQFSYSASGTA

Take `COc1ccn2c(-c3ccccc3)c(-c3ccc(C4(N)CCC4)cc3)nc2n1` [Example 2-0, 1-[4-(7-methoxy-3-phenyl-imidazo[1,2-a]pyrimidin-2-yl)-phenyl]-cyclobutylamine]: the pIC50 is 6.85 in assay [1]; 7.52 in [2]; 6.10 in assay [3]; 5.68 in the assay on A2058 (melanoma); 5.07 in the assay on A375 (melanoma); 6.30 in the assay with H1993 (NSCLC). The negative-log IC50 (pIC50) in the assay with HMCB (melanoma) is 5.07; with HT-144 (melanoma), 5.68; in the assay with Malme-3M (melanoma), 5.62; with MeWo (melanoma) it was 5.28; with SK-Mel-28 (melanoma), 5.43; with U87 (brain), 5.00. Moreover, the pIC50 is 5.70 in the assay with UACC-257 (melanoma) and 5.05 in the assay on UACC-62 (melanoma).

With `NC1(c2ccc(-c3nc4nc(-c5ccccc5)ccn4c3-c3ccccc3)cc2)CCC1` [Example 1-3], the pIC50 is 5.77 in assay [3]; 5.66 in the assay on A2058 (melanoma); 5.66 in the assay on A375 (melanoma); 6.22 with H1993 (NSCLC); 5.59 with HMCB (melanoma); 5.64 in the assay on HT-144 (melanoma). Moreover, the pIC50 with Malme-3M (melanoma) is 5.72; in the assay with MeWo (melanoma), 5.70; in the assay with SK-Mel-28 (melanoma), 5.70; with U87 (brain), 5.31; with UACC-257 (melanoma) it was 5.96; in the assay on UACC-62 (melanoma) it was 5.66.
